Data as given in BindingDB's records for patent US20250320234 (Pretzel Therapeutics, 2025).

Biological target: T1, Lon protease homolog, mitochondrial (Homo sapiens, UniProt P36776)
T1 sequence (P36776 whole entry): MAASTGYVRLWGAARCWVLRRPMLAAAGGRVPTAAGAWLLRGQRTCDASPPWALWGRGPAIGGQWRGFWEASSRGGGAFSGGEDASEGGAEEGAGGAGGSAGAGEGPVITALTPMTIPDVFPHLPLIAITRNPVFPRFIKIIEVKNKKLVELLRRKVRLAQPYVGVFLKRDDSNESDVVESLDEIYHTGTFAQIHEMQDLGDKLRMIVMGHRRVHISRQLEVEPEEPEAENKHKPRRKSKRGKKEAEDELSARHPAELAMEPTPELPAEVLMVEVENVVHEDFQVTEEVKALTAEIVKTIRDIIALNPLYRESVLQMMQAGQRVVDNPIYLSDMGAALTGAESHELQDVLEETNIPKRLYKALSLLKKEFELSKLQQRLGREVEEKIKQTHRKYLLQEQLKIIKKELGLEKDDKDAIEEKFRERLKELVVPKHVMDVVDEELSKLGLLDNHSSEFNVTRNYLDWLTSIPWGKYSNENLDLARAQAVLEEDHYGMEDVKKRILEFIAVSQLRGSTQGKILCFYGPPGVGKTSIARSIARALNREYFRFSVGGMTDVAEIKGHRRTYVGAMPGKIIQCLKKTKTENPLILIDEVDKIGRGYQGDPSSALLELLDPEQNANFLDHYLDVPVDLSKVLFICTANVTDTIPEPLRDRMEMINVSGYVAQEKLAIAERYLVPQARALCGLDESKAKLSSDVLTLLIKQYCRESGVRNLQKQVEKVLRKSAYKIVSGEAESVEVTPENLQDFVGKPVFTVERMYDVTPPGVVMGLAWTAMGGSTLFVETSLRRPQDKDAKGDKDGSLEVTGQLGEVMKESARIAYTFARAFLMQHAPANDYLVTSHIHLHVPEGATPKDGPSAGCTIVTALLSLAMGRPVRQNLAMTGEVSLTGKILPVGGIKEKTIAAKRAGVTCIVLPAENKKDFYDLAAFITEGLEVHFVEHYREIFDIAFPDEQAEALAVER
Experiment: Biological/Biochemical Evaluation
Procedure: In this Example, LONP1 (NM_004793.4) activity was measured by a FRET-based assay for protease activity using a fluorogenic peptide DabcylYRGIT(2Abu)SORQK(5-FAM) (Cambridge Research Biochemicals) as substrate. LONP1 activity is followed by an increase in fluorescence signal due to the degradation of the peptide. Inhibition of LONP1 protease activity by an inhibitor compound of the disclosure elicits a decrease in the fluorescent signal. The assay is performed in a 384-well plate (Greiner, cat. #781076) using the following reagents and conditions: substrate (3 μM) was incubated for 1 hour at 37° C. in the presence of LONP1 (15 nM as monomer), 25 mM Tris pH 8.0, 10 mM MgCl2, 0.03 mg/mL […], 0.5 mM DTT, 0.0003% Tween-20, 10 mM NaCl, 0.06 mM ATP and 0.5 mM EGTA in a 15 μL final volume. The LONP1-containing mix (10 μL) was incubated with the test compound for 15 min at 37° C. before adding the peptide-containing mix (5 μL). Solutions were dispensed using a small cassette-Multidrop Combi (Thermo Scientific). Fluorescence was measured using a PheraStar plate reader (BMG Labtech) FI-FRET EX 485 nm Em 520 nm.

Row | SMILES | IC50 [nM]
1 | COC[C@@H](NC(=O)c1cnccn1)C(=O)N[C@@H](CCCc1ccc(OC)cc1)B(O)O [US20250320234, Compound 5] | < 50
2 | CO[C@@H](C)[C@@H](NC(=O)c1cnccn1)C(=O)N[C@@H](CCCc1ccccc1)B(O)O [US20250320234, Compound 6] | < 50
3 | COC[C@@H](NC(=O)[C@@H]1CCC(=O)N1)C(=O)N[C@@H](CCCc1ccccc1)B(O)O [US20250320234, Compound 7] | < 50
4 | COC[C@@H](NC(=O)c1ccccn1)C(=O)N[C@@H](CCCc1ccccc1)B(O)O [US20250320234, Compound 9] | < 50
5 | COC[C@@H](NC(=O)c1cccc(C)n1)C(=O)N[C@@H](CCCc1ccccc1)B(O)O [US20250320234, Compound 10] | < 50
6 | O=C(N[C@H](COCc1ccccc1)C(=O)N[C@@H](CCCc1ccccc1)B(O)O)c1cnccn1 [US20250320234, Compound 11] | < 50
7 | COC[C@@H](NC(=O)c1cnccn1)C(=O)N[C@@H](CCCc1ccc(Cl)cc1)B(O)O [US20250320234, Compound 12] | < 50
8 | COC[C@@H](NC(=O)c1cnccn1)C(=O)N[C@@H](CCOc1ccccc1)B(O)O [US20250320234, Compound 14] | < 50
9 | O=C(N[C@H](COC1CC1)C(=O)N[C@@H](CCCc1ccccc1)B(O)O)c1cnccn1 [US20250320234, Compound 20] | < 50
10 | COC[C@@H](NC(=O)c1cnccn1)C(=O)N[C@@H](CCOc1ccc(Cl)cc1)B(O)O [US20250320234, Compound 21] | < 50
11 | COC[C@@H](NC(=O)c1cnccn1)C(=O)N[C@@](C)(CCCc1ccccc1)B(O)O [US20250320234, Compound 22] | > 5000
12 | COC[C@@H](NC(=O)c1cnccn1)C(=O)N[C@@H](CCOc1ccc(F)cc1)B(O)O [US20250320234, Compound 23] | < 50
13 | COC[C@@H](NC(=O)c1cnccn1)C(=O)N[C@@H](CCOc1ccc(Cl)cc1F)B(O)O [US20250320234, Compound 24] | < 50
14 | COC[C@@H](NC(=O)c1cnccn1)C(=O)N[C@@H](CCOc1ccc(Cl)c(F)c1)B(O)O [US20250320234, Compound 25] | < 50
15 | COC[C@@H](NC(=O)c1cnccn1)C(=O)N[C@H](CCOc1ccc(Cl)cc1C)B(O)O [US20250320234, Compound 28] | > 5000
16 | COC[C@@H](NC(=O)N1CCOCC1)C(=O)N[C@@H](CCCc1ccccc1)B(O)O [US20250320234, Compound 31] | < 50
17 | COC[C@@H](NC(=O)c1cnccn1)C(=O)N[C@@H](CCCc1ccc(F)cc1)B(O)O [US20250320234, Compound 32] | < 50
18 | O=C(N[C@H](CSc1ccccc1)C(=O)N[C@@H](CCCc1ccccc1)B(O)O)c1cnccn1 [US20250320234, Compound 34] | < 50
19 | CN(C)S(=O)(=O)C[C@H](NC(=O)c1cnccn1)C(=O)N[C@@H](CCCc1ccccc1)B(O)O [US20250320234, Compound 36] | < 50
20 | COC[C@@H](NC(=O)c1cccc(C)n1)C(=O)N[C@@H](CCOc1ccccc1)B(O)O [US20250320234, Compound 42] | < 50
21 | COC[C@@H](NC(=O)c1ccccn1)C(=O)N[C@@H](CCOc1ccccc1)B(O)O [US20250320234, Compound 43] | < 50
22 | COC[C@@H](NC(=O)c1cncc(C)c1)C(=O)N[C@@H](CCOc1ccccc1)B(O)O [US20250320234, Compound 44] | < 50
23 | COC[C@@H](NC(=O)c1ccc(Cl)cc1)C(=O)N[C@@H](CCCc1ccccc1)B(O)O [US20250320234, Compound 51] | < 50
24 | COC[C@@H](NC(=O)c1cncnc1)C(=O)N[C@@H](CCCc1ccccc1)B(O)O [US20250320234, Compound 52] | < 50
25 | COC[C@@H](NC(=O)c1cccc(Cl)c1)C(=O)N[C@@H](CCCc1ccccc1)B(O)O [US20250320234, Compound 54] | < 50
26 | COC[C@@H](NC(=O)c1cc(Cl)ccc1Cl)C(=O)N[C@@H](CCCc1ccccc1)B(O)O [US20250320234, Compound 56] | < 50
27 | COC[C@@H](NC(=O)c1ccccc1Cl)C(=O)N[C@@H](CCCc1ccccc1)B(O)O [US20250320234, Compound 57] | < 50
